Structures are written as SMILES.

These results are taken from US12161722B2, “Bifunctional heterocyclic compound having BTK degradation function via ubiquitin proteasome pathway, and use thereof” (KOREA RESEARCH INSTITUTE OF CHEMICAL TECHNOLOGY, priority 2021, dated 2024).

T1 sequence (Q06187 whole entry): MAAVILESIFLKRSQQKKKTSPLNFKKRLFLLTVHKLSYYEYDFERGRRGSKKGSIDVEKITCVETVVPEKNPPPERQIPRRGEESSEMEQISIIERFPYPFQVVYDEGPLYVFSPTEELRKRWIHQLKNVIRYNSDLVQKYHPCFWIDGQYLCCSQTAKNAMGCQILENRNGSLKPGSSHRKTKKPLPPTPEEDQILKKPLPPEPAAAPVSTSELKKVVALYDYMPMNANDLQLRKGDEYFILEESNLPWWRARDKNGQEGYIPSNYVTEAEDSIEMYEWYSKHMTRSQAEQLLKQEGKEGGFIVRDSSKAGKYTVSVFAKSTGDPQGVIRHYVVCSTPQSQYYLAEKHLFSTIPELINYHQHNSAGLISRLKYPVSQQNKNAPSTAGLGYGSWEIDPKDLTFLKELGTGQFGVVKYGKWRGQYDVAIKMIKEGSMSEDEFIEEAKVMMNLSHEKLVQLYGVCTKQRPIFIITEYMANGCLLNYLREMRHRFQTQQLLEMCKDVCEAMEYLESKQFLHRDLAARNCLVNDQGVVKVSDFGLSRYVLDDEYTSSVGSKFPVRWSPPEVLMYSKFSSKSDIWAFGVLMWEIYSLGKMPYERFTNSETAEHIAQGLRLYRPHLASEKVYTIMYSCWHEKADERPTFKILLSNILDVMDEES

This assay has as its target T1, WT BTK protein (Homo sapiens, UniProt Q06187).
T1 construct: measured for intracellular BTK protein levels by Western blotting; endogenous in cells; host or cells: TMD-8 or RAMOS cells
Description: BTK protein degradation assay (Western blotting), WT BTK. The class given is cell-based. The conditions noted are these: concentration range accounting for 50% degradation of WT BTK protein, TMD-8 or RAMOS cells, 24 hours. The procedure, abridged: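 BTK levels were read by Western blotting (GAPDH and β-actin normalisers) in RIPA lysates of TMD-8 cells exposed to compounds for 24 h at 1×10^6 cells/mL. Results scored in ranges of the concentration producing 50% loss of WT BTK.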
A general note: Immunoblotting shows a protein as a band on a membrane.
As usually defined, the DC50 is the midpoint of the concentration-degradation curve. For the molecule `Cc1cccc(C)c1Nc1nn(C)c2nc(Nc3ccc4c(c3)CN(C3CCN(CC5CN(c6ccc7c(c6)C(=O)N(C6CCC(=O)NC6=O)C7=O)C5)CC3)CC4)ncc12` (centres unmarked) [Compound 138, 5-(3-((4-(7-((3-((2,6-Dimethylphenyl)amino)-1-methyl-1H-pyrazolo[3,4-d]pyrimidin-6-yl)amino)-3,4-dihydroisoquinolin-2 (1H)-yl)piperidin-1-yl)methyl)azetidin-1-yl)-2-(2,6-dioxopiperidin-3-yl)isoindoline-1,3-dione], the DC50 lay in the range of 0.1 to 10 nM.

`Cc1cccc(C)c1Nc1nn(C)c2nc(Nc3ccc(C4CCN(CC5CCN(c6ccc7c(n6)CN(C6CCC(=O)NC6=O)C7=O)CC5)CC4)cc3)ncc12` (centres unmarked) [Compound 170, 3-(2-(4-((4-(4-((3-((2,6-Dimethylphenyl)amino)-1-methyl-1H-pyrazolo[3,4-d]pyrimidin-6-yl)amino)phenyl)piperidin-1-yl)methyl)piperidin-1-yl)-5-oxo-5,7-dihydro-6H-pyrrolo[3,4-b]pyridin-6-yl)piperidin-2,6-one]: the DC50 was in the range of 0.1 to 10 nM.

As to `Cc1cccc(C)c1Nc1nn(C)c2nc(Nc3ccc(CCNC(=O)C4CCN(c5ccc6c(c5)C(=O)N(C5CCC(=O)NC5=O)C6=O)CC4)cc3)ncc12` (centres unmarked) [Compound 100, N-(4-((3-((2,6-dimethylphenyl)amino)-1-methyl-1H-pyrazolo[3,4-d]pyrimidin-6-yl)amino)phenethyl)-1-(2-(2,6-dioxopiperidin-3-yl)-1,3-dioxoisoindolin-5-yl)piperidine-4-carboxamide], the DC50 fell in the range of 0.1 to 10 nM.

For `Cc1cccc(C)c1Nc1nn(C)c2nc(Nc3ccc4c(c3)CN(CC3CCN(c5ccc(C(=O)NC6CCC(=O)NC6=O)nc5)CC3)CC4)ncc12` (centres unmarked) [Compound 137, 5-(4-((7-((3-((2,6-Dimethylphenyl)amino)-1-methyl-1H-pyrazolo[3,4-d]pyrimidin-6-yl)amino)-3,4-dihydroisoquinolin-2 (1H)-yl)methyl)piperidin-1-yl)-N-(2,6-dioxopiperidin-3-yl)picolinamide], the DC50 was 0.1 to 10 nM.

With `Cc1cccc(C)c1Nc1nn(C)c2nc(Nc3ccc4c(c3)CN(C(=O)Cc3cccc(NC5=CC(=O)N(C6CCC(=O)NC6=O)C5=O)c3)CC4)ncc12` (centres unmarked) [Compound 192, 3-(3-((3-(2-(7-((3-((2,6-Dimethylphenyl)amino)-1-methyl-1H-pyrazolo[3,4-d]pyrimidin-6-yl)amino)-3,4-dihydroisoquinolin-2 (1H)-yl)-2-oxoethyl)phenyl)amino)-2,5-dioxo-2,5-dihydro-1H-pyrrol-1-yl)piperidin-2,6-one], the DC50 is 10 to 1000 nM.

Take `Cn1nc(Nc2c(Br)cccc2Br)c2cnc(Nc3ccc4c(c3)CN(CC3CCN(c5ccc6c(c5)C(=O)N(C5CCC(=O)NC5=O)C6=O)CC3)CC4)nc21` (centres unmarked) [Compound 217, 5-(4-((7-((3-((2,6-Dibromophenyl)amino)-1-methyl-1H-pyrazolo[3,4-d]pyrimidin-6-yl)amino)-3,4-dihydroisoquinolin-2 (1H)-yl)methyl)piperidin-1-yl)-2-(2,6-dioxopiperidin-3-yl)isoindoline-1,3-dione]: the DC50 fell in the range of 0.1 to 10 nM.

On to `Cc1cccc(C)c1Nc1nn(C)c2nc(Nc3ccc(N4CCC(CN5CCN(c6ccc7c(c6)C(=O)N(C6CCC(=O)NC6=O)C7=O)CC5)CC4)nc3)ncc12` (centres unmarked) [Compound 135, 5-(4-((1-(5-((3-((2,6-Dimethylphenyl)amino)-1-methyl-1H-pyrazolo[3,4-d]pyrimidin-6-yl)amino)pyridin-2-yl)piperidin-4-yl)methyl)piperazin-1-yl)-2-(2,6-dioxopiperidin-3-yl)isoindoline-1,3-dione], for which the DC50 lay within 0.1 to 10 nM.

Consider `Cc1cccc(C)c1Nc1nn(C)c2nc(Nc3ccc(N4CCN(CC5CCN(c6ccc7c(c6)C(=O)N(C6CCC(=O)NC6=O)C7=O)CC5)CC4)nc3)ncc12` (centres unmarked) [Compound 134, 5-(4-((4-(5-((3-((2,6-Dimethylphenyl)amino)-1-methyl-1H-pyrazolo[3,4-d]pyrimidin-6-yl)amino)pyridin-2-yl)piperazin-1-yl)methyl)piperidin-1-yl)-2-(2,6-dioxopiperidin-3-yl)isoindoline-1,3-dione], for which the DC50 was 0.1 to 10 nM.
